One data set has as its system viable cells in culture. Nature of the data set: Cell viability assay (CellTiter-Glo Luminescent Cell Viability Assay, ATP quantitation, percent of vehicle control).
Data set [1] deals with human TERT expression (hTERT mRNA). Nature of the data set: Quantitative real-time RT-PCR of hTERT mRNA expression (Ct, transcripts) in compound-treated cells. The class given is cell-based. A digest of the protocol:
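Read-out is cycle threshold, the cycle at which probe fluorescence released by Taq 5′-nuclease activity crosses a set level; Ct falls as hTERT mRNA rises. cDNA of treated and untreated cells was compared, with starting transcripts quantified against a known-cDNA standard curve.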

Data on 35 compounds can be found in patent US12404304B1, “Telomerase reverse transcriptase (TERT) expression enhancing compounds and methods for using the same” (Sierra Sciences, LLC, priority 2007, dated 2025).

Read-outs that look alike come from different tables or passages of the source.

On to `CCc1c(C)nc(-n2nc(C)cc2NC(=O)C2c3ccccc3Oc3ccccc32)[nH]c1=O` [compound 1296], for which the “Average Cell Viability after 24 Hours (% DMSO)” value in the data set on viable cells in culture is recorded as 73.20 % DMSO. In data set [1] (quantitative real-time RT-PCR), the “Average Number of hTERT Transcripts” value worked out at 60.31.

As to `CC1CCc2c(sc(NC(=O)c3cccnc3)c2C(=O)Nc2cccc(Cl)c2)C1` (stereo not shown) [compound 1315], the “Average Cell Viability after 24 Hours (% DMSO)” value in the data set with viable cells in culture is listed as 58.86 % DMSO. In addition, in data set [1] (quantitative real-time RT-PCR), the “Average Number of hTERT Transcripts” value is given as 26.20.

With `O=C(Nc1nc2ccc([N+](=O)[O-])cc2s1)c1cncc(Br)c1` [compound 1395], the “Average Cell Viability after 24 Hours (% DMSO)” value in the data set with viable cells in culture stood at 63.84 % DMSO. For the same compound, in data set [1], the “Average Number of hTERT Transcripts” value amounted to 39.44.

Regarding `CCCC1=NN(c2ccc(C(=O)OCC)cc2)C(=O)C1` [compound 1484], in the data set with viable cells in culture, the “Average Cell Viability after 24 Hours (% DMSO)” value worked out at 62.51 % DMSO. Further, the “Average Number of hTERT Transcripts” value in data set [1] is on record as 16.52.

Take `O=C(NCC1COc2ccccc2O1)c1ccc(NC(=O)C2COc3ccccc3O2)cc1` (stereo not shown) [compound 1430]: the “Average Cell Viability after 24 Hours (% DMSO)” value in the data set with viable cells in culture was 88.00 % DMSO. Moreover, the “Average Number of hTERT Transcripts” value in data set [1] turned out to be 23.55.

`O=C(N/N=C/c1c(O)ccc2ccccc12)c1ccc(Cl)c(Cl)c1` [compound 1266]: in the data set with viable cells in culture, the “Average Cell Viability after 24 Hours (% DMSO)” value came out at 50.17 % DMSO. In addition, the “Average Number of hTERT Transcripts” value in data set [1] (quantitative real-time RT-PCR) was 14.59.

On to `CC1CCc2c(sc3ncnc(N4CCCC(C)C4)c23)C1` (stereo not shown) [compound 1545], for which the “Average Cell Viability after 24 Hours (% DMSO)” value in the data set on viable cells in culture was determined as 43.72 % DMSO. The “Average Number of hTERT Transcripts” value in data set [1] is 4.40.

As to `Cc1oc2cc(OCC(=O)OCc3ccccc3)ccc2c(=O)c1Oc1ccccc1` [compound 1402], the “Average Cell Viability after 24 Hours (% DMSO)” value in the data set with viable cells in culture is reported as 86.55 % DMSO. The “Average Number of hTERT Transcripts” value in data set [1] is recorded as 29.82.

For `CCCCNC(=O)CCc1c(C)nn(-c2nc(C)c(C)s2)c1O` [compound 1135], the “Average Cell Viability after 24 Hours (% DMSO)” value with viable cells in culture was 88.69 % DMSO. In addition, the “Average Number of hTERT Transcripts” value in data set [1] (quantitative real-time RT-PCR) was determined as 23.88.

Take `Cc1ccc(-c2cc(=O)n3nc(C)c(-c4ccccc4)c3[nH]2)cc1` [compound 1151]: the “Average Cell Viability after 24 Hours (% DMSO)” value in the data set on viable cells in culture amounted to 77.04 % DMSO. The “Average Number of hTERT Transcripts” value in data set [1] (quantitative real-time RT-PCR) is given as 164.58.

`Cc1ccc(NCC(=O)N/N=C\c2cc(Br)cc(Br)c2O)cc1` [compound 1273]: the “Average Cell Viability after 24 Hours (% DMSO)” value in the data set on viable cells in culture is reported as 75.55 % DMSO. In data set [1] (quantitative real-time RT-PCR), the “Average Number of hTERT Transcripts” value amounted to 40.65.

Turning to `O=C(NCCN1CCOCC1)c1cc(-c2cccs2)on1` [compound 1187], in the data set with viable cells in culture, the “Average Cell Viability after 24 Hours (% DMSO)” value worked out at 95.94 % DMSO. The “Average Number of hTERT Transcripts” value in data set [1] (quantitative real-time RT-PCR) was determined as 61.19.

In the case of `CCOC(=O)c1nn(-c2ccccc2)c(=O)c2c(NC(=O)c3c(F)cccc3Cl)scc12` [compound 1299], the “Average Cell Viability after 24 Hours (% DMSO)” value in the data set on viable cells in culture came to 69.64 % DMSO. For the same compound, the “Average Number of hTERT Transcripts” value in data set [1] (quantitative real-time RT-PCR) came to 2.95.

With `Cc1ccccc1NC(=O)C1CC(Cl)=CCC1C(=O)O` (stereo not shown) [compound 1374], in the data set on viable cells in culture, the “Average Cell Viability after 24 Hours (% DMSO)” value is 107.65 % DMSO. The “Average Number of hTERT Transcripts” value in data set [1] turned out to be 5.48.

With `Cc1ccc2nc(-c3ccc(NC(=S)NC(=O)CCc4ccccc4)cc3)sc2c1` [compound 1425], the “Average Cell Viability after 24 Hours (% DMSO)” value in the data set with viable cells in culture came out at 79.15 % DMSO. The “Average Number of hTERT Transcripts” value in data set [1] is 17.07.

For the compound `CCN(Cc1ccncc1)C(=O)c1cccs1` [compound 1542], the “Average Cell Viability after 24 Hours (% DMSO)” value with viable cells in culture came to 111.82 % DMSO. The “Average Number of hTERT Transcripts” value in data set [1] turned out to be 3.43.

On to `Cn1c(SCC(=O)N/N=C/c2sc3ccccc3c2O)nc2ccccc21` [compound 1292], for which, in the data set on viable cells in culture, the “Average Cell Viability after 24 Hours (% DMSO)” value came to 69.51 % DMSO. Further, the “Average Number of hTERT Transcripts” value in data set [1] (quantitative real-time RT-PCR) is recorded as 39.11.

Consider `CCCC(=O)NC(c1ccc(SC)cc1)c1ccc2cccnc2c1O` (stereo not shown) [compound 1010], for which the “Average Cell Viability after 24 Hours (% DMSO)” value with viable cells in culture was determined as 86.63 % DMSO. Also, the “Average Number of hTERT Transcripts” value in data set [1] (quantitative real-time RT-PCR) is 35.70.

Consider `O=C(O)CC12CC3CC(C1)CC(CC(=O)O)(C3)C2` [compound 1355], for which the “Average Cell Viability after 24 Hours (% DMSO)” value in the data set with viable cells in culture turned out to be 95.78 % DMSO. In addition, in data set [1] (quantitative real-time RT-PCR), the “Average Number of hTERT Transcripts” value stood at 4.95.

As to `CCOC(=O)c1nn(-c2ccc(Cl)cc2)c(=O)c2c(NC(=O)c3ccc(F)cc3)scc12` [compound 1300], the “Average Cell Viability after 24 Hours (% DMSO)” value with viable cells in culture was 62.52 % DMSO. In addition, the “Average Number of hTERT Transcripts” value in data set [1] (quantitative real-time RT-PCR) worked out at 6.98.

For the compound `Cc1nc(-n2nc(C)c(CCC(=O)Nc3ccc(Br)cc3)c2O)sc1C` [compound 1139], in the data set on viable cells in culture, the “Average Cell Viability after 24 Hours (% DMSO)” value is listed as 74.45 % DMSO. Also, the “Average Number of hTERT Transcripts” value in data set [1] (quantitative real-time RT-PCR) was determined as 19.61.

As for `c1ccc(-n2ncc3c2-c2[nH]c4ccccc4c2CC3)cc1` [compound 1474], the “Average Cell Viability after 24 Hours (% DMSO)” value in the data set with viable cells in culture came out at 80.47 % DMSO. In addition, in data set [1], the “Average Number of hTERT Transcripts” value came to 17.37.

In the case of `FC(F)(F)c1cccc(NC(=S)Nc2ccc(Cc3ccncc3)cc2)c1` [compound 1449], the “Average Cell Viability after 24 Hours (% DMSO)” value in the data set with viable cells in culture is on record as 53.58 % DMSO. Further, the “Average Number of hTERT Transcripts” value in data set [1] turned out to be 48.57.

For `Cc1cc(C)c2c3c1C1C=CCC1CN3C(C(=O)O)C1CC=CC21` (stereo not shown) [compound 1460], in the data set on viable cells in culture, the “Average Cell Viability after 24 Hours (% DMSO)” value was determined as 89.11 % DMSO. In addition, in data set [1], the “Average Number of hTERT Transcripts” value amounted to 46.47.

As for `O=C(O)C1C2CCC(O2)C1C(=O)N1CCN(c2ccc(F)cc2)CC1` (stereo not shown) [compound 1223], the “Average Cell Viability after 24 Hours (% DMSO)” value in the data set with viable cells in culture came out at 44.16 % DMSO. For the same compound, in data set [1] (quantitative real-time RT-PCR), the “Average Number of hTERT Transcripts” value is reported as 24.63.

As for `Clc1ccc(OCc2nn3c(Cc4ccccc4)nnc3s2)c(Cl)c1` [compound 1475], the “Average Cell Viability after 24 Hours (% DMSO)” value with viable cells in culture is on record as 67.26 % DMSO. Also, the “Average Number of hTERT Transcripts” value in data set [1] is 17.56.

As for `COCCNC(=O)c1cc(-c2cccs2)on1` [compound 1196], the “Average Cell Viability after 24 Hours (% DMSO)” value with viable cells in culture worked out at 98.07 % DMSO. In addition, the “Average Number of hTERT Transcripts” value in data set [1] (quantitative real-time RT-PCR) is 163.15.

Regarding `O=C(Cn1cnc2ccccc21)NCCCN1CCOCC1` [compound 1447], the “Average Cell Viability after 24 Hours (% DMSO)” value with viable cells in culture stood at 96.56 % DMSO. In addition, the “Average Number of hTERT Transcripts” value in data set [1] was 5.30.

With `Cc1nn(-c2cc(N3CCN(S(=O)(=O)c4ccc(Cl)cc4)CC3)ccc2[N+](=O)[O-])c(=O)c2ccccc12` [compound 1407], the “Average Cell Viability after 24 Hours (% DMSO)” value in the data set with viable cells in culture was 109.75 % DMSO. Besides, in data set [1], the “Average Number of hTERT Transcripts” value stood at 3.38.

For `CCCOc1ccc2c(c1)c1c3n2CCN(C)C3=NCC1` [compound 1362], in the data set on viable cells in culture, the “Average Cell Viability after 24 Hours (% DMSO)” value is 75.90 % DMSO. Also, the “Average Number of hTERT Transcripts” value in data set [1] (quantitative real-time RT-PCR) came to 15.20.

Consider `O=C1CC(N2CCN(Cc3ccc(Cl)cc3)CC2)C(=O)N1c1ccccc1` (stereo not shown) [compound 1313], for which, in the data set with viable cells in culture, the “Average Cell Viability after 24 Hours (% DMSO)” value turned out to be 112.79 % DMSO. Besides, the “Average Number of hTERT Transcripts” value in data set [1] (quantitative real-time RT-PCR) is listed as 7.45.

On to `CCCCN(CC)C(=O)CSc1ccccc1` [compound 1398], for which the “Average Cell Viability after 24 Hours (% DMSO)” value in the data set on viable cells in culture is reported as 87.02 % DMSO. For the same compound, in data set [1], the “Average Number of hTERT Transcripts” value was determined as 8.01.

On to `CCn1c(=S)[nH]c2scc(-c3ccc(OC)cc3)c2c1=O` [compound 1394], for which the “Average Cell Viability after 24 Hours (% DMSO)” value in the data set on viable cells in culture is reported as 100.14 % DMSO. Also, in data set [1], the “Average Number of hTERT Transcripts” value is given as 7.00.

As to `C/C(=N\NC(=O)c1ccccc1O)c1ccccc1O` [compound 1530], the “Average Cell Viability after 24 Hours (% DMSO)” value in the data set with viable cells in culture came to 96.99 % DMSO. In data set [1], the “Average Number of hTERT Transcripts” value was determined as 30.46.

As for `COc1ccc(-c2nnc(NC(=O)c3ccc(Cl)cc3)o2)cc1` [compound 1178], the “Average Cell Viability after 24 Hours (% DMSO)” value in the data set with viable cells in culture worked out at 83.07 % DMSO. Also, in data set [1] (quantitative real-time RT-PCR), the “Average Number of hTERT Transcripts” value is recorded as 63.78.
